From patent US11702399B2, “Quinazolinone derivative, preparation method therefor, pharmaceutical composition, and applications” (KANGPU BIOPHARMACEUTICALS, LTD., priority 2016, dated 2023) come the findings set out here.

Holding throughout (format): cell-based
The test system of assay [1] is MM.1S cells (myeloma cells). As to the kind of experiment: CTG cell proliferation, MM.1S. As to conditions: Homo sapiens, MM1.S, CellTiter-Glo, 72-120 hours, read-out: IC50 value for MM.1S Inhibition. From the text:
(§1) Efficacy Example 2: CTG Cell Proliferation Experimental Method
(§2) MM.1S cells (myeloma cells) (ATCC, catalog number CRL-2974), DOHH2 cells (mantle cell lymphoma cells) (DSMZ, catalog number ACC-47), NCI-H929 cells (myeloma cells) (ATCC, catalog number CRL-9068), or WSU-DLCL-2 cells (diffuse large B cell lymphoma cells) (DSMZ, catalog number ACC-575), Namalwa.CSN/70 cells (non-Hodgkin's lymphoma cells (DSMZ, catalog number ACC-70) was inoculated as (1.8-15)×10^3 per well in white wall, transparent bottom 96-well plate containing specific media (Corning, catalog number CLS3903), which was cultured in 37° C., 5% CO2 incubator for 24 hours. Compounds were formulated in DMSO (Sigma, Cat. No. 276855) as 150 mM stock, which was diluted to the required concentration (DMSO final concentration is 0.2%) in culture medium and added to each well, 2 wells/concentration. The plate was incubated in 37° C., 5% CO2 incubator for 72-120 hours. Afterwards, 100 μl of CellTiter-Glo® cell activity assay reagent (Promega, Cat. No. G7570) was added to each well, which was mixed on a plate shaker for 10 minutes to induce cell lysis. The 96-well plate was allowed to stand at room temperature for 10 minutes to stabilize the luminescence signal. A white base film was pasted on the bottom of the plate and the EnSpire was used to read the plate. Data processing was performed with XLfit software to obtain IC50 values.
A general note: ATP-based viability assays read luminescence as a measure of living cells.

The subject of assay [2] is DOHH2 cells (mantle cell lymphoma cells). The assay is described as follows: CTG cell proliferation, DOHH2. As to conditions: Homo sapiens, DOHH-2; Table 2 batch; CellTiter-Glo, 72-120 hours; read-out: IC50 value for DOHH2 Inhibition.
Description: as §1, §2

Assay [3] has as its system WSU-DLCL-2 cells (diffuse large B cell lymphoma cells). As to the kind of experiment: CTG cell proliferation, WSU-DLCL-2. As to conditions: Homo sapiens, WSUDLCL2; Table 2 batch; CellTiter-Glo, 72-120 hours; read-out: IC50 value for WSU-DLCL2 Inhibition.
Description: as §1, §2

The next assay concerns TNF-α. As to the kind of experiment: TNF-α activity inhibition assay (LPS-stimulated hPBMC, TNF-α ELISA). As to conditions: Homo sapiens, 18 h. The method, then:
Efficacy Example 1: TNF-α Activity Inhibition Assay
Heat Inactivated FBS: Invitrogen, Cat #10100147
DMSO: Dimethyl sulphoxide, Sigma, Cat #D8418
CTL-Anti-Aggregate Wash 20×: CTL, Cat #CTL-AA-005
Human TNF ELISA Set: BD, Cat #555212
PBMC Recovery and Cell Plating Steps
1) Agitation was performed continuously in a 37° C. water bath to rapidly thaw cells.
2) The cells were gently added to a 15 ml centrifuge tube, to which was then added 10 ml of fresh, prewarmed recovery medium gently and then centrifugation was performed at 1000 rpm for 10 min.
3) The supernatant medium was discarded and resuspension was performed with 10 ml of fresh, prewarmed RPMI 1640 complete medium.
1) The total number of cells needed for the experiment was calculated and adjusted to the appropriate cell concentration per ml. 100 ul and 10^5 cells per well.
2) The cell suspension was diluted with appropriate volume of cell culture medium.
3) The cell suspension was added to a disposable sterile sample well.
4) 100 ul of cell suspension was added to each well of a 96-well plate.
5) The plate was incubated in a 37° C., 5% CO2 incubator for 2 hours.
Compound Preparation Step
1. LPS: The 1 mg/mL stock solution was diluted with water, aliquoted, and stored at −80° C. Prior to each test, the working solution of LPS was diluted from the stock solution with serum-free RPMI 1640 medium.
20 mM stock solution was dissolved in DMSO and the compound was checked for solubility, aliquoted, and stored at −80° C.
8× compound gradient preparation: […]
A series of compound concentration gradient was diluted with DMSO: 10 mM, 2 mM, 0.4 mM, 80 uM, 16 uM, 3.2 uM, 0.64 uM, 0.128 uM were obtained and then the compounds were diluted 125-fold with serum-free RPMI 1640 medium to the final 8×. The final concentration of DMSO in cell culture was 0.1%.
Compound Processing Experimental Procedures and Collection of Supernatants
1. Cell Plating: Fresh cells were plated in 96-well cell culture plates according to the procedure above, 100 ul and 10^5 cells per well, and then incubated in a 37° C., 5% CO2 incubator for 2 hours.
2. Compound Preparation: Before test, compounds were added to the plates according to the above description. A dose of compound in 8× concentration was prepared with serum-free RPMI 1640 medium and all gradients of solution were added to the compound plate.
3. Compound addition: 16.7 ul of compound solution in working concentration was added to each well of the cell culture plate. The plate was incubated in a 37° C., 5% CO2 incubator for 1 hour.
4. 16.7 ul of 8×LPS per well (final concentration of LPS is EC80, the amount of each PBMC needed to be determined) was added. The plate was incubated for 18 hours in 37° C., 5% CO2 incubator.
5. 80 ul of supernatant per well was collected and then subjected to TNF-α ELISA assay. The collected supernatant can be stored at −80° C. The supernatant needed to be diluted in various ratios to ensure that the experimental dose would not exceed the linear range of the TNF-α standard curve, depending on the amount of TNF-α released in different donors. Typically, 20-100 ul of supernatant was diluted to 200 ul and then used for ELISA experiments.
The TNF-α ELISA test procedure were referred to the BD human TNF-α ELISA kit experimental procedure.
Four compounds per plate. 5-fold dilution was performed, starting from 10 uM, by 8 gradients, and parallel wells were made. A total of 16 compounds were tested.
The TNF-α standard was added to each plate. (1st well, starting from 500 pg/ml, 2-fold dilution, 7 gradients)
ZPE (0% inhibition) used 15 pg/ml LPS+0.1% DMSO, while HPE (100% inhibition) used only 0.1% DMSO.
The inhibition rate statistics were calculated. The inhibition rate (%)=[1−[…]]*100%. IC50 was used to evaluate the concentration of the test compound (nM) at 50% inhibition.
(In an ELISA, binding on a coated surface is turned into a signal by an enzyme label.)

Assay [4] relates to Namalwa.CSN/70 cells (non-Hodgkin's lymphoma cells). The assay is described as follows: CTG cell proliferation, Namalwa.CSN/70. As to conditions: Table 2 batch; CellTiter-Glo, 72-120 hours; read-out: IC50 value for Namalwa. CSN/70 Inhibition.
Description: as §1, §2

Assay [5] relates to NCI-H929 cells (myeloma cells). The assay is described as follows: CTG cell proliferation, NCI-H929. Particulars: Homo sapiens, Table 2 batch, CellTiter-Glo, 72-120 hours, read-out: IC50 value for NCI-H929 Inhibition.
Description: as §1, §2

Where two headings read alike, the source gives them in different places.

Consider `Nc1cccc2c1CN(C1CCC(=O)NC1=O)C2=O` (stereo not shown) [Compound B001], for which the IC50 in assay [1] (Table 2 batch) was 362 nM; in assay [2], over 300000 nM; in assay [3], over 300000 nM; in the assay on TNF-α (Table 1-1 experiment), 99.1 nM; with TNF-α (Table 1 experiment), 192 nM; in assay [4], over 300000 nM. In addition, the IC50 in assay [5] worked out at 1000 nM.

For the compound `Cc1nc2cccc(N)c2c(=O)n1C1CCC(=O)NC1=O` (stereo not shown) [Compound K001, reference compound], the IC50 came out at 49.8 nM in assay [1] (Table 2 batch); 37.5 nM in assay [1] (Table 3 batch); 275 nM in assay [1] (Table 4 batch); 459 nM in assay [2]; 469 nM in assay [3]; 32.8 nM with TNF-α (Table 1-1 experiment). The IC50 with TNF-α (Table 1 experiment) is 32.5 nM; in assay [4], 65.8 nM; in assay [5], 86.1 nM.

For `Cc1nc2cc(F)cc(N)c2c(=O)n1C1CCC(=O)NC1=O` (stereo not shown) [Compound K101], the IC50 in assay [1] (Table 2 batch) came to 13.3 nM; in assay [2], 125 nM; in assay [3] it was 179 nM; in the assay with TNF-α (Table 1-1 experiment), 10.2 nM; in the assay with TNF-α (Table 1 experiment), 27.8 nM; in assay [4] it was 6.8 nM. Also, in assay [5], the IC50 was determined as 30.4 nM.

In the case of `Cc1nc2cc(F)cc(N)c2c(=O)n1[C@H]1CCC(=O)NC1=O` [Compound K102], the IC50 in assay [1] (Table 4 batch) amounted to 104 nM; in the assay with TNF-α (Table 1-1 experiment) it was 7.3 nM.

In the case of `Cc1nc2cc(F)cc(N)c2c(=O)n1[C@@H]1CCC(=O)NC1=O` [Compound K103], the results for the IC50 (in assay [1] (Table 4 batch); in the assay with TNF-α (Table 1-1 experiment)) were 465 nM and 283 nM, respectively.

Take `[2H]C1(n2c(C)nc3cc(F)cc(N)c3c2=O)CCC(=O)NC1=O` (stereo not shown) [Compound K104]: the IC50 in assay [1] (Table 4 batch) came to 192 nM.

In the case of `[2H][C@]1(n2c(C)nc3cc(F)cc(N)c3c2=O)CCC(=O)NC1=O` [Compound K105], the IC50 amounted to 33 nM in assay [1] (Table 4 batch) and 6.4 nM in the assay with TNF-α (Table 1-1 experiment).

In the case of `[2H][C@@]1(n2c(C)nc3cc(F)cc(N)c3c2=O)CCC(=O)NC1=O` [Compound K106], the values for the IC50 (in assay [1] (Table 4 batch); with TNF-α (Table 1-1 experiment)) were 504 nM and 781 nM, respectively.

With `Cc1nc2cc(Cl)cc(N)c2c(=O)n1C1CCC(=O)NC1=O` (stereo not shown) [Compound K401], the IC50 in assay [1] (Table 3 batch) amounted to 22 nM; in the assay with TNF-α (Table 1-1 experiment) it was 10.2 nM.

Turning to `Cc1nc2cc(Br)cc(N)c2c(=O)n1C1CCC(=O)NC1=O` (stereo not shown) [Compound K501], the IC50 in assay [1] (Table 3 batch) stood at 26.7 nM; in the assay with TNF-α (Table 1-1 experiment), 9.6 nM.

In turn, `CNc1cc(F)cc2nc(C)n(C3CCC(=O)NC3=O)c(=O)c12` (stereo not shown) [Compound K613] showed an IC50 in the assay with TNF-α (Table 1-1 experiment) of 9.4 nM.

In the assay with TNF-α (Table 1-1 experiment), `Cc1nc2cc(F)cc(NC(C)C)c2c(=O)n1C1CCC(=O)NC1=O` (stereo not shown) [Compound K617] yielded an IC50 of 153 nM.

Turning to `COc1cc(F)cc2nc(C)n(C3CCC(=O)NC3=O)c(=O)c12` (stereo not shown) [Compound K627], the IC50 in assay [1] (Table 3 batch) was determined as 5930 nM.

In the case of `Cc1nc2cc(F)cc(O)c2c(=O)n1C1CCC(=O)NC1=O` (stereo not shown) [Compound K631], in assay [1] (Table 3 batch), the IC50 turned out to be 956 nM.

Regarding `CC(=O)Nc1cc(F)cc2nc(C)n(C3CCC(=O)NC3=O)c(=O)c12` (stereo not shown) [Compound K633], the IC50 in assay [1] (Table 3 batch) was found to be 314 nM; with TNF-α (Table 1-1 experiment) it was 392 nM.

Take `Cc1nc2cc(F)cc(NC(=O)C(C)C)c2c(=O)n1C1CCC(=O)NC1=O` (stereo not shown) [Compound K635]: the IC50 in assay [1] (Table 3 batch) came to 2810 nM.

For `Cc1nc2cc(O)cc(N)c2c(=O)n1C1CCC(=O)NC1=O` (stereo not shown) [Compound K700], the IC50 in assay [1] (Table 3 batch) was found to be 507 nM.

Consider `Cc1nc2cc(OCc3ccccc3)cc(N)c2c(=O)n1C1CCC(=O)NC1=O` (stereo not shown) [Compound K704], for which the IC50 in the assay with TNF-α (Table 1-1 experiment) was found to be 466 nM.

As for `Cc1nc2cc(OCc3ccc(CN4CCOCC4)cc3F)cc(N)c2c(=O)n1C1CCC(=O)NC1=O` (stereo not shown) [Compound K706], the IC50 with TNF-α (Table 1-1 experiment) was determined as 319 nM.

Take `Cc1cc(N)c2c(=O)n(C3CCC(=O)NC3=O)c(C)nc2c1` (stereo not shown) [Compound K720]: the IC50 in the assay with TNF-α (Table 1-1 experiment) stood at 138 nM.

With `Cc1nc2cc(C#N)cc(N)c2c(=O)n1C1CCC(=O)NC1=O` (stereo not shown) [Compound K724], the IC50 in the assay with TNF-α (Table 1-1 experiment) was determined as 5.9 nM.

As to `Cc1nc2cc(F)ccc2c(=O)n1C1CCC(=O)NC1=O` (stereo not shown) [Reference 1, reference compound], the IC50 in assay [1] (Table 3 batch) amounted to 2400 nM; in the assay on TNF-α (Table 1-1 experiment) it was 2800 nM.

On to `Cc1nc2c(F)ccc(N)c2c(=O)n1C1CCC(=O)NC1=O` (stereo not shown) [Reference 2, reference compound], for which the IC50 in assay [1] (Table 3 batch) was over 300000 nM.

For the compound `Cc1nc2ccc(F)c(N)c2c(=O)n1C1CCC(=O)NC1=O` (stereo not shown) [Reference 3, reference compound], the IC50 in assay [1] (Table 3 batch) came out at 1170 nM.
